{"source": "patent US20220127297A1", "about": "“Novel Antibacterial 3\"-Derivatives Of 4,6-Disubstituted 2,5-Dideoxystreptamine Aminoglycoside Antibiotics” (AGILeBiotics B.V., priority 2018, published 2022)", "key": {"[1]": {"system": "clinical isolates of multidrug-resistant Klebsiella pneumoniae (and ATCC43816)", "test": "MIC determination at Fidelta, clinical isolates", "type": "cell-based", "source_text": "3.4.2 MIC Determination at Fidelta (Croatia)\nTested reference compounds. Amikacin sulfate (Cat. No. 01693, Chem-Impex), Gentamicin sulfate (Cat. No. G4918, Sigma Aldrich), Ceftazidime Pentahydrate (Cat. No. 1098130, USP), Meropenem (Cat. No. 1392454, USP), Tobramycin (Cat. No. 1667508, USP).\nMicrobial strains. Klebsiella pneumoniae KP-1919 (abdomen), Klebsiella pneumoniae KP-1935 (urine), Klebsiella pneumoniae KP-1936 (abscess), Klebsiella pneumoniae KP-1937 (blood), Klebsiella pneumoniae KP-1942 (urine), Klebsiella pneumoniae KP-1944 (blood), Klebsiella pneumoniae KP-2027 (tracheal aspirate), Klebsiella pneumoniae KP-2029 (urine), Klebsiella pneumoniae KP-2030 (trachea), Klebsiella pneumoniae KP-2031 (skin), Klebsiella pneumoniae KP-2032 (urine), Klebsiella pneumoniae KP-2033 (urine), Klebsiella pneumoniae KP-2034 (urine), Klebsiella pneumoniae KP-2035 (urine), Klebsiella pneumoniae KP-2036 (urine), Klebsiella pneumoniae KP-2037 (urine), Klebsiella pneumoniae ATCC 43816, Pseudomonas aeruginosa PA-1948 (wound), Pseudomonas aeruginosa PA-1949 (urine), Pseudomonas aeruginosa PA-1950 (sputum), Pseudomonas aeruginosa PA-1952 (wound), Pseudomonas aeruginosa PA-1953 (urine), Pseudomonas aeruginosa PA-1954 (sputum), Pseudomonas aeruginosa PA-1967 (blood), Pseudomonas aeruginosa ATCC27853, Acinetobacter baumannii AB-1931 (urine), Acinetobacter baumannii AB-1932 (urine), Acinetobacter baumannii AB-2017 (bronchial aspirate), Acinetobacter baumannii AB-2018 (skin), Acinetobacter baumannii AB-2019 (bronchial aspirate), Acinetobacter baumannii AB-1964 (blood), Acinetobacter baumannii AB-2025 (skin), Acinetobacter baumannii AB-2026 (skin), Acinetobacter baumannii ATCC17978, methicillin-resistant Staphylococcus aureus MRSA-1995 (liquor), methicillin-resistant Staphylococcus aureus MRSA-1998 (wound), methicillin-resistant Staphylococcus aureus MRSA-1999 (skin), methicillin-resistant Staphylococcus aureus MRSA-2003 (wound), vancomycin-resistant Enterococcus faecium VRE-2005 (urine), vancomycin-resistant Enterococcus faecium VRE-2006 (urine), vancomycin-resistant Enterococcus faecium VRE-2007 (urine), vancomycin-resistant Enterococcus faecium VRE-2008 (urine), vancomycin-resistant Enterococcus faecium VRE-2009 (urine), vancomycin-resistant Enterococcus faecium VRE-2010 (urine), vancomycin-resistant Enterococcus faecium VRE-2011 (rectum), vancomycin-resistant Enterococcus faecium VRE-2012 (rectum), vancomycin-resistant Enterococcus faecium VRE-2013 (rectum).\nCulture media and equipment. BBL™ Mueller Hinton Broth (REF 275730, Lot. 7009699, Becton Dickinson); Mueller Hinton Agar 2 (Ref. No. 97580-500G-F, Lot. No. BCBV4646, Sigma); Cellstar, 96-well plates, U-bottom (Cat. No. 650180, Lot. No. E14123EB, Greiner Bio-one); 96-well deep well plate, 1 mL (Cat. No. 278606, Nunc); Incubator (Binder); Laminar flow (Thermo Scientific); BioPhotometer (Eppendorf); DEN-1B (McFarland Densitometer, Biosan); McFarland standards (polymer microparticle suspension, Biosan).\nCompound preparation. For testing, 5 mg/mL DMSO solutions of the test compounds and reference antibiotics were used. Out of these DMSO solutions, 43.5 μL was transferred to 1656.5 μL of MH media in a deep well plate. Out of these working solutions 100 μL was transferred to wells in the third column of 96-well plates. Plates are previously filled with 50 μL of MH media in all wells except for the wells in the third column. After compound and antibiotic addition, 50 μL was transferred from the third to the fourth column, then from the fourth to the fifth and so on. In this manner, the compounds and antibiotics were plated in 96-well plate in serial two-fold dilutions giving a final concentration range of 64-0.125 μg/mL.\nInoculum preparation. Designations used for clinical isolates were from Fidelta strain collection bank. Microorganisms used were all revived from skim milk storage at −70° C. by plating them on MH agar plates."}, "[2]": {"system": "Klebsiella pneumoniae ATCC 43816", "test": "Murine neutropenic thigh model of infection", "type": "in vivo, male CD-1 mice", "conditions": "for Change from vehicle group / Avg. Log CFU/g: SC, BID; for Change from vehicle group: Avg. Log CFU/g thigh vs vehicle; for Avg. Log CFU/g: thigh, 24 hours post infection", "protocol": "4.1 Murine Neutropenic Thigh Model of Infection (Kiebsiella Pneumoniae ATCC 43816)\nA comparator antibiotic (meropenem; Cat. No. 1392454, USP) was used during both studies.\nDuring the first study ABX5006 and ABX5020 were tested at a dose of 64 mg/kg (group 5 for ABX5006, group 8 for ABX5020), 16 mg/kg (group 4 for ABX5006, group 7 for ABX5020) and of 4 mg/kg (group 3 for ABX5006, group 6 for ABX5020).\nDuring a second study ABX5026 and ABX5039 were tested at a dose of 4 mg/kg (group 5 for ABX5026, group 8 for ABX5039), 1 mg/kg (group 4 for ABX5026, group 7 for ABX5039) and of 0.25 mg/kg (group 3 for ABX5026, group 6 for ABX5039).\nAnimals were dosed subcutaneously (10 mL/kg) twice with 8 h interval. […] A CFU count below limit of detection (LOD=1.0×10^2 CFU/mL) was substituted with the value 0 in order to perform statistical analysis.\nInoculum preparation for intramuscular infection. The strain was streaked out onto MH agar."}}, "note": "Read-outs that look alike come from different tables or passages of the source.", "data": [{"smiles": "NCC[C@H](O)C(=O)N[C@@H]1C[C@H](N)[C@@H](O[C@H]2O[C@H](CN)[C@@H](O)[C@H](O)[C@H]2O)[C@H](O)[C@H]1O[C@H]1O[C@H](CO)[C@@H](O)[C@H](N)[C@H]1O", "note": "[Amikacin, amikacin, reference compound]", "values": [{"measurement": "MIC90", "setting": "[1]; Klebsiella pneumoniae, ATCC43816", "result": 0.5, "unit": "µg/mL"}, {"measurement": "MIC90", "setting": "[1]; Klebsiella pneumoniae, ATCC43816, KP-1919, Abdomen/VIM, ESBL", "result": 8, "unit": "µg/mL"}, {"measurement": "MIC90", "setting": "[1]; Klebsiella pneumoniae, ATCC43816, KP-1935, Urine/ESBL, NDM", "result": 8, "unit": "µg/mL"}, {"measurement": "MIC90", "setting": "[1]; Klebsiella pneumoniae, ATCC43816, KP-1936, Abscess/NDM", "result": 4, "unit": "µg/mL"}, {"measurement": "MIC90", "setting": "[1]; Klebsiella pneumoniae, ATCC43816, KP-1937, Blood/VIM, ESBL", "result": 32, "unit": "µg/mL"}, {"measurement": "MIC90", "setting": "[1]; Klebsiella pneumoniae, ATCC43816, KP-1942, Urine (catheter)/VIM", "result": 2, "unit": "µg/mL"}, {"measurement": "MIC90", "setting": "[1]; Klebsiella pneumoniae, ATCC43816, KP-1944, Blood/NDM", "result": 8, "unit": "µg/mL"}, {"measurement": "MIC90", "setting": "[1]; Klebsiella pneumoniae, ATCC43816, KP-2027, Tracheal aspirate/ESBL, OXA-48, ColR", "result": 4, "unit": "µg/mL"}, {"measurement": "MIC90", "setting": "[1]; Klebsiella pneumoniae, ATCC43816, KP-2029, Urine/ESBL, OXA-48", "result": 8, "unit": "µg/mL"}, {"measurement": "MIC90", "setting": "[1]; Klebsiella pneumoniae, ATCC43816, KP-2030, Trachea/ESBL, OXA-48", "result": 16, "unit": "µg/mL"}, {"measurement": "MIC90", "setting": "[1]; Klebsiella pneumoniae, ATCC43816, KP-2031, Skin/ESBL, OXA-48", "result": 8, "unit": "µg/mL"}, {"measurement": "MIC90", "setting": "[1]; Klebsiella pneumoniae, ATCC43816, KP-2032, Urine/ESBL, OXA-48", "result": 4, "unit": "µg/mL"}, {"measurement": "MIC90", "setting": "[1]; Klebsiella pneumoniae, ATCC43816, KP-2033, Urine/OXA-A8", "result": 2, "unit": "µg/mL"}, {"measurement": "MIC90", "setting": "[1]; Klebsiella pneumoniae, ATCC43816, KP-2034, Urine/ESBL, OXA-48", "result": 16, "unit": "µg/mL"}, {"measurement": "MIC90", "setting": "[1]; Klebsiella pneumoniae, ATCC43816, KP-2035, Urine/ESBL, OXA-48", "result": 8, "unit": "µg/mL"}, {"measurement": "MIC90", "setting": "[1]; Klebsiella pneumoniae, ATCC43816, KP-2036, Urine/ESBL", "result": 8, "unit": "µg/mL"}, {"measurement": "MIC90", "setting": "[1]; Klebsiella pneumoniae, ATCC43816, KP-2037, Urine/ESBL, OXA-48", "result": 4, "unit": "µg/mL"}]}, {"smiles": "N=C(NC[C@@H]1CCNC1)NC1[C@@H](O)C(OC2[C@@H](F)[C@H](O[C@H]3OC(CN)[C@@H](O)CC3N)C(N)C[C@H]2NC(=O)[C@@H](O)CCN)O[C@H](CO)[C@H]1O", "note": "(stereo partly drawn) [ABX5039, Tobra-AHB-F-Gua (R) pyrrolidine-3-ylmethyl]", "values": [{"measurement": "MIC90", "setting": "[1]; K. pneumoniae ATCC43816 strain", "result": 1, "unit": "µg/mL"}, {"measurement": "MIC90", "setting": "[1]; Klebsiella pneumoniae, ATCC43816, KP-1919, Abdomen/VIM, ESBL, read-out: MIC 90", "result": 1, "unit": "µg/mL"}, {"measurement": "MIC90", "setting": "[1]; Klebsiella pneumoniae, ATCC43816, KP-1935, Urine/ESBL, NDM, read-out: MIC 90", "result": 2, "unit": "µg/mL"}, {"measurement": "MIC90", "setting": "[1]; Klebsiella pneumoniae, ATCC43816, KP-1936, Abscess/NDM, read-out: MIC 90", "result": 1, "unit": "µg/mL"}, {"measurement": "MIC90", "setting": "[1]; Klebsiella pneumoniae, ATCC43816, KP-1937, Blood/VIM, ESBL, read-out: MIC 90", "result": 2, "unit": "µg/mL"}, {"measurement": "MIC90", "setting": "[1]; Klebsiella pneumoniae, ATCC43816, KP-1942, Urine (catheter)/VIM, read-out: MIC 90", "result": 1, "unit": "µg/mL"}, {"measurement": "MIC90", "setting": "[1]; Klebsiella pneumoniae, ATCC43816, KP-1944, Blood/NDM, read-out: MIC 90", "result": 2, "unit": "µg/mL"}, {"measurement": "MIC90", "setting": "[1]; Klebsiella pneumoniae, ATCC43816, KP-2027, Tracheal aspirate/ESBL, OXA-48, ColR, read-out: MIC 90", "result": 1, "unit": "µg/mL"}, {"measurement": "MIC90", "setting": "[1]; Klebsiella pneumoniae, ATCC43816, KP-2029, Urine/ESBL, OXA-48, read-out: MIC 90", "result": 0.5, "unit": "µg/mL"}, {"measurement": "MIC90", "setting": "[1]; Klebsiella pneumoniae, ATCC43816, KP-2030, Trachea/ESBL, OXA-48, read-out: MIC 90", "result": 1, "unit": "µg/mL"}, {"measurement": "MIC90", "setting": "[1]; Klebsiella pneumoniae, ATCC43816, KP-2031, Skin/ESBL, OXA-48, read-out: MIC 90", "result": 0.5, "unit": "µg/mL"}, {"measurement": "MIC90", "setting": "[1]; Klebsiella pneumoniae, ATCC43816, KP-2032, Urine/ESBL, OXA-48, read-out: MIC 90", "result": 0.5, "unit": "µg/mL"}, {"measurement": "MIC90", "setting": "[1]; Klebsiella pneumoniae, ATCC43816, KP-2033, Urine/OXA-A8, read-out: MIC 90", "result": 0.5, "unit": "µg/mL"}, {"measurement": "MIC90", "setting": "[1]; Klebsiella pneumoniae, ATCC43816, KP-2034, Urine/ESBL, OXA-48, read-out: MIC 90", "result": 1, "unit": "µg/mL"}, {"measurement": "MIC90", "setting": "[1]; Klebsiella pneumoniae, ATCC43816, KP-2035, Urine/ESBL, OXA-48, read-out: MIC 90", "result": 1, "unit": "µg/mL"}, {"measurement": "MIC90", "setting": "[1]; Klebsiella pneumoniae, ATCC43816, KP-2036, Urine/ESBL, read-out: MIC 90", "result": 1, "unit": "µg/mL"}, {"measurement": "MIC90", "setting": "[1]; Klebsiella pneumoniae, ATCC43816, KP-2037, Urine/ESBL, OXA-48, read-out: MIC 90", "result": 0.5, "unit": "µg/mL"}, {"measurement": "Change from vehicle group", "setting": "[2]; dose 0.25 mg/kg", "result": 0.70}, {"measurement": "Avg. Log CFU/g", "setting": "[2]; dose 0.25 mg/kg", "result": 9.08, "unit": "Log CFU/g"}, {"measurement": "CFU count reduction in comparison to the vehicle control group", "setting": "[2]; dose 1 mg/kg SC BID", "result": "> 4", "unit": "log 10"}, {"measurement": "Change from vehicle group", "setting": "[2]; dose 1 mg/kg", "result": 4.71}, {"measurement": "Avg. Log CFU/g", "setting": "[2]; dose 1 mg/kg", "result": 5.07, "unit": "Log CFU/g"}, {"measurement": "Change from vehicle group", "setting": "[2]; dose 4 mg/kg", "result": 7.55}, {"measurement": "Avg. Log CFU/g", "setting": "[2]; dose 4 mg/kg", "result": 2.23, "unit": "Log CFU/g"}]}]}
